# Results: ChEMBL document CHEMBL6103589, “Synthesis and evaluation of novel ebselen derivatives as urease inhibitors for combating Helicobacter pylori infections” (Eur J Med Chem, 2025)
# Active and inactive are the calls of the source. No cut-off for these calls is given here.
# How the values were obtained:
# [1] = test system: Helicobacter pylori; assay: (§1) Protection against Helicobacter pylori ATCC 43504 infected (MOI 400:1) in human GES1 cell injury model assessed as viable cells at 50 uM pre-treated for 2 hrs followed by bacterial infection measured after 6 hrs by Annexin/V-FITC staining based flow cytometry analysis (reference value: 37.61%); assay type: functional; conditions: time 8 hrs
# [2] = test system: Helicobacter pylori; assay: as §1, with “as early apoptotic” for “as viable”, “at 25” for “at 50”, “value: 42.41 %)” for “value: 37.61%)”; assay type: functional; conditions: time 8 hrs
# [3] = test system: Helicobacter pylori; assay: Protection against Helicobacter pylori ATCC 43504 infected (MOI 50:1) in human GES1 cell injury model assessed as necrotic cells at 50 uM pre-treated for 2 hrs followed by bacterial infection measured after 6 hrs by Annexin/V-FITC staining based flow cytometry analysis (reference value: 2.85%); assay type: functional; conditions: time 8 hrs
# [4] = test system: Helicobacter pylori; assay: In vivo protection against Helicobacter pylori ATCC 43504 infected in BALB/c mouse gastric mucosa model assessed as appearance of intact sub-mucosa at high dose administered once a day for 2 weeks by HE staining based analysis; assay type: functional, organism-based
# [5] = test system: Helicobacter pylori; assay: Protection against Helicobacter pylori ATCC 43504 infected (MOI 100:1) in human GES1 cell injury model assessed as necrotic cells at 50 uM pre-treated for 2 hrs followed by bacterial infection measured after 6 hrs by Annexin/V-FITC staining based flow cytometry analysis (reference value: 2.82%); assay type: functional; conditions: time 8 hrs
# [6] = test system: Helicobacter pylori; assay: (§2) Protection against Helicobacter pylori ATCC 43504 infected (MOI 50:1) in human GES1 cell injury model assessed as late apoptotic cells at 50 uM pre-treated for 2 hrs followed by bacterial infection measured after 6 hrs by Annexin/V-FITC staining based flow cytometry analysis (reference value: 2.85%); assay type: functional; conditions: time 8 hrs
# [7] = test system: Helicobacter pylori; assay: Protection against Helicobacter pylori ATCC 43504 infected (MOI 25:1) in human GES1 cell injury model assessed as late apoptotic cells at 50 uM pre-treated for 2 hrs measured after 6 hrs by Annexin/V-FITC staining based flow cytometry analysis (reference value: 0.31%); assay type: functional; conditions: time 8 hrs
# [8] = test system: Helicobacter pylori; assay: (§3) Protection against Helicobacter pylori ATCC 43504 infected (MOI 50:1) in human GES1 cell injury model assessed as necrotic cells at 25 uM pre-treated for 2 hrs followed by bacterial infection measured after 6 hrs by Annexin/V-FITC staining based flow cytometry analysis (reference value: 2.85%); assay type: functional; conditions: time 8 hrs
# [9] = test system: Helicobacter pylori; assay: as §2, with “400:1)” for “50:1)”, “13.62%)” for “2.85%)”; assay type: functional; conditions: time 8 hrs
# [10] = Acute toxicity in BALB/c mouse assessed as pathological abnormality in spleen at 1 g/Kg, po single dose administered for 7 days by HE staining based analysis; assay type: organism-based; conditions: in vivo, 1000 mg/kg, 168 h, time 7 day
# [11] = test system: Helicobacter pylori; assay: Protection against Helicobacter pylori ATCC 43504 infected (MOI 25:1) in human GES1 cell injury model assessed as viable cells at 25 uM pre-treated for 2 hrs measured after 6 hrs by Annexin/V-FITC staining based flow cytometry analysis (reference value: 89.14%); assay type: functional; conditions: time 8 hrs
# [12] = test system: Helicobacter pylori; assay: (§4) Protection against Helicobacter pylori ATCC 43504 infected (MOI 25:1) in human GES1 cell injury model assessed as necrotic cells at 25 uM pre-treated for 2 hrs followed by bacterial infection measured after 6 hrs by Annexin/V-FITC staining based flow cytometry analysis (reference value: 0.66%); assay type: functional; conditions: time 8 hrs
# [13] = Acute toxicity in BALB/c mouse assessed as pathological abnormality in heart at 1 g/Kg, po single dose administered for 7 days by HE staining based analysis; assay type: organism-based; conditions: in vivo, 1000 mg/kg, 168 h, time 7 day
# [14] = test system: Helicobacter pylori; assay: as §1, with “as reduction in cell apoptosis rate” for “as viable cells”, “at 25” for “at 50”, “value: 56.03%)” for “value: 37.61%)”; assay type: functional; design: scale not given: the % may be the effect or the level left; conditions: time 8 hrs
# [15] = test system: GES1; assay: Cytotoxicity against human GES1 cells at upto 75 uM by MTT assay; assay type: toxicity, cell-based; conditions: ges1, 75 µM
# [16] = test system: Helicobacter pylori; assay: as §2, with “25:1)” for “50:1)”, “early” for “late”, “9.89%)” for “2.85%)”; assay type: functional; conditions: time 8 hrs
# [17] = test system: Helicobacter pylori; assay: (§5) Protection against Helicobacter pylori ATCC 43504 infected (MOI 300:1) in human GES1 cell injury model assessed as necrotic cells at 25 uM pre-treated for 2 hrs followed by bacterial infection measured after 6 hrs by Annexin/V-FITC staining based flow cytometry analysis (reference value: 6.05%); assay type: functional; conditions: time 8 hrs
# [18] = test system: Helicobacter pylori; assay: Protection against Helicobacter pylori ATCC 43504 infected (MOI 300:1) in human GES1 cell injury model assessed as viable cells at 25 uM pre-treated for 2 hrs followed by bacterial infection measured after 6 hrs by Annexin/V-FITC staining based flow cytometry analysis (reference value: 47.43%); assay type: functional; conditions: time 8 hrs
# [19] = test system: Helicobacter pylori; assay: as §2, with “(MOI 400:1)” for “(MOI 50:1)”, “at 25” for “at 50”, “value: 13.62%)” for “value: 2.85%)”; assay type: functional; conditions: time 8 hrs
# [20] = test system: Helicobacter pylori; assay: Protection against Helicobacter pylori ATCC 43504 infected (MOI 300:1) in human GES1 cell injury model assessed as viable cells at 50 uM pre-treated for 2 hrs followed by bacterial infection measured after 6 hrs by Annexin/V-FITC staining based flow cytometry analysis (reference value: 47.43%); assay type: functional; conditions: time 8 hrs
# [21] = test system: GES1; assay: Induction of DNA damage in human GES1 cells infected (25 to 400:1 MOI) with Helicobacter pylori ATCC 43504 assessed as decrease in gammaH2AX levels by measuring fluorescence intensity at 25 to 50 uM by SP8 laser confocal microscopic analysis; assay type: functional, cell-based; conditions: dose 25-50 µM
# [22] = test system: Helicobacter pylori; assay: Protection against Helicobacter pylori ATCC 43504 infected (MOI 25:1) in human GES1 cell injury model assessed as necrotic cells at 50 uM pre-treated for 2 hrs measured after 6 hrs by Annexin/V-FITC staining based flow cytometry analysis (reference value: 0.66%); assay type: functional; conditions: time 8 hrs
# [23] = test system: Helicobacter pylori; assay: Protection against Helicobacter pylori ATCC 43504 infected (MOI 200:1) in human GES1 cell injury model assessed as necrotic cells at 50 uM pre-treated for 2 hrs followed by bacterial infection measured after 6 hrs by Annexin/V-FITC staining based flow cytometry analysis (reference value: 3.92%); assay type: functional; conditions: time 8 hrs
# [24] = test system: Helicobacter pylori; assay: as §5, with “late apoptotic” for “necrotic”, “11.95%)” for “6.05%)”; assay type: functional; conditions: time 8 hrs
# [25] = test system: Helicobacter pylori; assay: as §3, with “200:1)” for “50:1)”, “early apoptotic” for “necrotic”, “31.93 %)” for “2.85%)”; assay type: functional; conditions: time 8 hrs
# [26] = test system: Helicobacter pylori; assay: as §4, with “early apoptotic” for “necrotic”, “9.89%)” for “0.66%)”; assay type: functional; conditions: time 8 hrs
# [27] = test system: Helicobacter pylori; assay: Antibacterial activity against Helicobacter pylori ATCC 43504 assessed as inhibition of bacterial colonies at 8 ug/mL incubated for 24 hrs by crystal violet based staining based analysis relative to control; assay type: functional; design: scale not given: the % may be the effect or the level left; conditions: dose 8 µg/ml
# [28] = test system: Helicobacter pylori; assay: In vivo protection against Helicobacter pylori ATCC 43504 infected in BALB/c mouse gastric mucosa model assessed as appearance of intact lamina propria at high dose administered once a day for 2 weeks by HE staining based analysis; assay type: functional, organism-based
smiles,measurement,setting,value
O=C(Oc1n[se]c2ccccc12)c1cccc(F)c1,Activity,[1],89.4%
same,Activity,[2],17.23%
same,Activity,[3],0.02%
same,Activity,[4],Active
same,Activity,[5],0.16%
same,Activity,[6],0.02%
same,Activity,[7],0%
same,Activity,[8],0.14%
same,Activity,[9],0.72%
same,Activity,[10],Non-toxic
same,Activity,[11],98.45%
same,Activity,[12],0.02%
same,Activity,[13],Non-toxic
same,Activity,[14],38.48%
same,Activity,[15],Non-toxic
same,Activity,[16],0.51%
same,Activity,[17],0.31%
same,Activity,[18],83.86%
same,Activity,[19],0.32%
same,Activity,[20],92.33%
same,Activity,[21],Active
same,Activity,[22],0.43%
same,Activity,[23],0.8%
same,Activity,[24],0.02%
same,Activity,[25],12.06%
same,Activity,[26],1.51%
same,Activity,[27],100%
same,Activity,[28],Active
